From ChEMBL document CHEMBL4507299, “Data for DCP probe PF-04554878” (2021)

Assays:
[1] = molecular target: Ribosomal protein S6 kinase alpha-3 (Homo sapiens) (UniProt P51812)
[2] = molecular target: Cyclin-dependent kinase 5 (Homo sapiens) (UniProt Q00535)
[3] = molecular target: Atypical kinase COQ8B, mitochondrial (Homo sapiens) (UniProt Q96D53)
[4] = molecular target: Serine/threonine-protein kinase D3 (Homo sapiens) (UniProt O94806)
[5] = molecular target: Serine/threonine-protein kinase tousled-like 1 (Homo sapiens) (UniProt Q9UKI8)
[6] = molecular target: Tyrosine-protein kinase TXK (Homo sapiens) (UniProt P42681)
[7] = molecular target: Dual specificity tyrosine-phosphorylation-regulated kinase 2 (Homo sapiens) (UniProt Q92630)
[8] = molecular target: Histamine H1 receptor (Homo sapiens) (UniProt P35367); conditions: Compound concentration 10.0 uM
[9] = molecular target: RAC-beta serine/threonine-protein kinase (Homo sapiens) (UniProt P31751)
[10] = molecular target: Tyrosine-protein kinase FRK (Homo sapiens) (UniProt P42685)
[11] = molecular target: Calcium/calmodulin-dependent protein kinase type 1G (Homo sapiens) (UniProt Q96NX5)
[12] = system: Phosphatidylinositol 4,5-bisphosphate 3-kinase catalytic subunit alpha isoform (Homo sapiens), P42336 [I800L]
[13] = molecular target: Testis-specific serine/threonine-protein kinase 3 (Homo sapiens) (UniProt Q96PN8)
[14] = molecular target: Serine/threonine-protein kinase WNK2 (Homo sapiens) (UniProt Q9Y3S1)
[15] = molecular target: Non-receptor tyrosine-protein kinase TNK1 (Homo sapiens) (UniProt Q13470)
[16] = molecular target: Serine/threonine-protein kinase 38 (Homo sapiens) (UniProt Q15208)
[17] = system: Receptor-type tyrosine-protein kinase FLT3 (Homo sapiens), P36888 [R834Q]
[18] = molecular target: 5-hydroxytryptamine receptor 2C (Homo sapiens) (UniProt P28335); conditions: Compound concentration 10.0 uM
[19] = molecular target: Serine/threonine-protein kinase NIM1 (Homo sapiens) (UniProt Q8IY84)
[20] = molecular target: Serine/threonine-protein kinase Chk2 (Homo sapiens) (UniProt O96017)
[21] = molecular target: Beta-3 adrenergic receptor (Homo sapiens) (UniProt P13945); conditions: Compound concentration 10.0 uM
[22] = molecular target: Serine/threonine-protein kinase N1 (Homo sapiens) (UniProt Q16512)
[23] = system: Receptor-type tyrosine-protein kinase FLT3 (Homo sapiens), P36888 [UNDEFINED MUTATION]
[24] = molecular target: Serine/threonine-protein kinase 32A (Homo sapiens) (UniProt Q8WU08)
[25] = molecular target: Mitogen-activated protein kinase kinase kinase 9 (Homo sapiens, UniProt P80192)
[26] = molecular target: Mitogen-activated protein kinase 12 (Homo sapiens) (UniProt P53778)
[27] = molecular target: Dual specificity mitogen-activated protein kinase kinase 3 (Homo sapiens) (UniProt P46734)
[28] = molecular target: Wee1-like protein kinase 2 (Homo sapiens) (UniProt P0C1S8)
[29] = molecular target: Tyrosine-protein kinase Fer (Homo sapiens) (UniProt P16591)
[30] = molecular target: Serine/threonine-protein kinase pim-2 (Homo sapiens) (UniProt Q9P1W9)
[31] = molecular target: Non-receptor tyrosine-protein kinase TYK2 (Homo sapiens) (UniProt P29597)
[32] = molecular target: Serine/threonine-protein kinase pim-3 (Homo sapiens) (UniProt Q86V86)
[33] = molecular target: Mitogen-activated protein kinase kinase kinase 15 (Homo sapiens) (UniProt Q6ZN16)
[34] = molecular target: Calcium/calmodulin-dependent protein kinase type 1B (Homo sapiens) (UniProt Q6P2M8)
[35] = system: Leucine-rich repeat serine/threonine-protein kinase 2 (Homo sapiens), Q5S007 [G2019S]
[36] = molecular target: Alpha-1B adrenergic receptor (Homo sapiens) (UniProt P35368); conditions: Compound concentration 10.0 uM
[37] = molecular target: Cyclin-dependent kinase 4 (Homo sapiens) (UniProt P11802)
[38] = molecular target: Serine/threonine-protein kinase 26 (Homo sapiens) (UniProt Q9P289)
[39] = system: Serine/threonine-protein kinase B-raf (Homo sapiens), P15056 [V600E]
[40] = molecular target: Calcium/calmodulin-dependent protein kinase type II subunit delta (Homo sapiens) (UniProt Q13557)
[41] = system: Tyrosine-protein kinase ABL1 (Homo sapiens), P00519 [F317I]
[42] = molecular target: Serine/threonine-protein kinase 32C (Homo sapiens) (UniProt Q86UX6)
[43] = molecular target: Cyclin-dependent kinase 11B (Homo sapiens) (UniProt P21127)
[44] = molecular target: Serine/threonine-protein kinase PAK 4 (Homo sapiens) (UniProt O96013)
[45] = molecular target: Ankyrin repeat and protein kinase domain-containing protein 1 (Homo sapiens) (UniProt Q8NFD2)
[46] = Compound concentration 100.0 nM
[47] = Compound concentration 1000.0 nM

Sequence of Serine/threonine-protein kinase N1 (Homo sapiens) (Q16512 2-942 limits assumed): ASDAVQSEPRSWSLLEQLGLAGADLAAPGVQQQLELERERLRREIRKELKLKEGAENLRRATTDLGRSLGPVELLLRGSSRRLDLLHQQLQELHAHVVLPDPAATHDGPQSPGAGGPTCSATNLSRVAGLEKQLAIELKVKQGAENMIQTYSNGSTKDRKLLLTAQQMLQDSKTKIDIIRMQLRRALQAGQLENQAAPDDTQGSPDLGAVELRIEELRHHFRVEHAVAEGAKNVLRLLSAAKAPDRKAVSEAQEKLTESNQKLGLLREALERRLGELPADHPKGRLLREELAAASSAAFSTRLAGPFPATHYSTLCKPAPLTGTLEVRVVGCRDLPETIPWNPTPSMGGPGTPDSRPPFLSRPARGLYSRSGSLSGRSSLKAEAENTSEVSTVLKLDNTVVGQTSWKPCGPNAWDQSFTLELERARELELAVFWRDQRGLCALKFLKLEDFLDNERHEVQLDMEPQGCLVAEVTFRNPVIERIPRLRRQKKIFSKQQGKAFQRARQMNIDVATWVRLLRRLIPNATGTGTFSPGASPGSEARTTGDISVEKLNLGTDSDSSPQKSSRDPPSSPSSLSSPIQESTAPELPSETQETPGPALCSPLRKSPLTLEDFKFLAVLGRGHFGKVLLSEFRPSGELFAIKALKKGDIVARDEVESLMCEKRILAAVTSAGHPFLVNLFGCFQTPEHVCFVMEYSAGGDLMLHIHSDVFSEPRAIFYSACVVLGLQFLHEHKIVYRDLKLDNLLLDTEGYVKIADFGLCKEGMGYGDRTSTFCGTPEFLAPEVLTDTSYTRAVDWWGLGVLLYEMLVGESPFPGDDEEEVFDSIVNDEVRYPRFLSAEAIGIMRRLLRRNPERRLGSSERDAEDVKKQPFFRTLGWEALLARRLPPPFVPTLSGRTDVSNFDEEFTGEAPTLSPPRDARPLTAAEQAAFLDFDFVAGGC
Sequence of Ankyrin repeat and protein kinase domain-containing protein 1 (Homo sapiens) (Q8NFD2 whole entry, the tested form may be a part): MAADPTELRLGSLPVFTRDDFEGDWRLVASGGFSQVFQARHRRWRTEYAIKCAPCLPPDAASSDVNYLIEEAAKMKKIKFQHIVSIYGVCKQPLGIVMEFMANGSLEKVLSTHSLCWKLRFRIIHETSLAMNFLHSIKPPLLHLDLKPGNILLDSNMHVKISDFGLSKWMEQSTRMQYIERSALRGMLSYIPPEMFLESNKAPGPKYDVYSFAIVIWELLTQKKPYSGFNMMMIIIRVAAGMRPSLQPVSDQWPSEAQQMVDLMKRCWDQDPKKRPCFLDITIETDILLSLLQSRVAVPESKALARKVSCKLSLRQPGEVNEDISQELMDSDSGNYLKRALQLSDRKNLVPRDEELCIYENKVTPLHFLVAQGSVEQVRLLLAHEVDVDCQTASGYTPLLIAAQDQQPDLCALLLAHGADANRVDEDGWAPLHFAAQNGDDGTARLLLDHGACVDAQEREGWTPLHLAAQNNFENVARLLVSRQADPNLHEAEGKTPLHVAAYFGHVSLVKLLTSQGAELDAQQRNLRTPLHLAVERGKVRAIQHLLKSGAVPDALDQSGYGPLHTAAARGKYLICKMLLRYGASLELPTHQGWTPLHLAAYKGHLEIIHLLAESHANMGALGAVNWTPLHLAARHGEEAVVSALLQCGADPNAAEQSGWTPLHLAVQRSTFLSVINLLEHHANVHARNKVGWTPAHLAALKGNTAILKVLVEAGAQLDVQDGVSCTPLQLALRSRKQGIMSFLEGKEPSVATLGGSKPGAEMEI
Sequence of Tyrosine-protein kinase Fer (Homo sapiens) (P16591 whole entry, looked up): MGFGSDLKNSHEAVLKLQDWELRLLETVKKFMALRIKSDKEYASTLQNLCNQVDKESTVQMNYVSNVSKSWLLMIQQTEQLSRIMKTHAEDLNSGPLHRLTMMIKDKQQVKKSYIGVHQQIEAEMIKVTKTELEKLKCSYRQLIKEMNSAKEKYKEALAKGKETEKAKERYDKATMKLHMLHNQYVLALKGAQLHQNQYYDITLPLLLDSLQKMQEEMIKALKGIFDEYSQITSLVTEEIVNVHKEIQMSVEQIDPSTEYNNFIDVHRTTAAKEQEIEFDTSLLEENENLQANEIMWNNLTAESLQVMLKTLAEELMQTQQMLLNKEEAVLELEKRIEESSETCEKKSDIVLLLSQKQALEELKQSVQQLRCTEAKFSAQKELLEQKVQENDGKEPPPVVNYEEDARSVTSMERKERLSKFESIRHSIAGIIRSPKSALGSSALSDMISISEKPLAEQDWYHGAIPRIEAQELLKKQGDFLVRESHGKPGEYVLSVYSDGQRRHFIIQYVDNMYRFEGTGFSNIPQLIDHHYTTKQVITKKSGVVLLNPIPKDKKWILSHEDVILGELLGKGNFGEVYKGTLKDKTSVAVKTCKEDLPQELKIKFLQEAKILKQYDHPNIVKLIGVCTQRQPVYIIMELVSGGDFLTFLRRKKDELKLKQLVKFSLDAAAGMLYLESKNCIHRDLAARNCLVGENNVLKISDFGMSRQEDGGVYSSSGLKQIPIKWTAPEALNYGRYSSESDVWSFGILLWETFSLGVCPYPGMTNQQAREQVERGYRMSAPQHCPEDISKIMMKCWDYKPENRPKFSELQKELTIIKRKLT
Sequence of Leucine-rich repeat serine/threonine-protein kinase 2 (Homo sapiens), Q5S007 [G2019S] (Q5S007 whole entry G2019S): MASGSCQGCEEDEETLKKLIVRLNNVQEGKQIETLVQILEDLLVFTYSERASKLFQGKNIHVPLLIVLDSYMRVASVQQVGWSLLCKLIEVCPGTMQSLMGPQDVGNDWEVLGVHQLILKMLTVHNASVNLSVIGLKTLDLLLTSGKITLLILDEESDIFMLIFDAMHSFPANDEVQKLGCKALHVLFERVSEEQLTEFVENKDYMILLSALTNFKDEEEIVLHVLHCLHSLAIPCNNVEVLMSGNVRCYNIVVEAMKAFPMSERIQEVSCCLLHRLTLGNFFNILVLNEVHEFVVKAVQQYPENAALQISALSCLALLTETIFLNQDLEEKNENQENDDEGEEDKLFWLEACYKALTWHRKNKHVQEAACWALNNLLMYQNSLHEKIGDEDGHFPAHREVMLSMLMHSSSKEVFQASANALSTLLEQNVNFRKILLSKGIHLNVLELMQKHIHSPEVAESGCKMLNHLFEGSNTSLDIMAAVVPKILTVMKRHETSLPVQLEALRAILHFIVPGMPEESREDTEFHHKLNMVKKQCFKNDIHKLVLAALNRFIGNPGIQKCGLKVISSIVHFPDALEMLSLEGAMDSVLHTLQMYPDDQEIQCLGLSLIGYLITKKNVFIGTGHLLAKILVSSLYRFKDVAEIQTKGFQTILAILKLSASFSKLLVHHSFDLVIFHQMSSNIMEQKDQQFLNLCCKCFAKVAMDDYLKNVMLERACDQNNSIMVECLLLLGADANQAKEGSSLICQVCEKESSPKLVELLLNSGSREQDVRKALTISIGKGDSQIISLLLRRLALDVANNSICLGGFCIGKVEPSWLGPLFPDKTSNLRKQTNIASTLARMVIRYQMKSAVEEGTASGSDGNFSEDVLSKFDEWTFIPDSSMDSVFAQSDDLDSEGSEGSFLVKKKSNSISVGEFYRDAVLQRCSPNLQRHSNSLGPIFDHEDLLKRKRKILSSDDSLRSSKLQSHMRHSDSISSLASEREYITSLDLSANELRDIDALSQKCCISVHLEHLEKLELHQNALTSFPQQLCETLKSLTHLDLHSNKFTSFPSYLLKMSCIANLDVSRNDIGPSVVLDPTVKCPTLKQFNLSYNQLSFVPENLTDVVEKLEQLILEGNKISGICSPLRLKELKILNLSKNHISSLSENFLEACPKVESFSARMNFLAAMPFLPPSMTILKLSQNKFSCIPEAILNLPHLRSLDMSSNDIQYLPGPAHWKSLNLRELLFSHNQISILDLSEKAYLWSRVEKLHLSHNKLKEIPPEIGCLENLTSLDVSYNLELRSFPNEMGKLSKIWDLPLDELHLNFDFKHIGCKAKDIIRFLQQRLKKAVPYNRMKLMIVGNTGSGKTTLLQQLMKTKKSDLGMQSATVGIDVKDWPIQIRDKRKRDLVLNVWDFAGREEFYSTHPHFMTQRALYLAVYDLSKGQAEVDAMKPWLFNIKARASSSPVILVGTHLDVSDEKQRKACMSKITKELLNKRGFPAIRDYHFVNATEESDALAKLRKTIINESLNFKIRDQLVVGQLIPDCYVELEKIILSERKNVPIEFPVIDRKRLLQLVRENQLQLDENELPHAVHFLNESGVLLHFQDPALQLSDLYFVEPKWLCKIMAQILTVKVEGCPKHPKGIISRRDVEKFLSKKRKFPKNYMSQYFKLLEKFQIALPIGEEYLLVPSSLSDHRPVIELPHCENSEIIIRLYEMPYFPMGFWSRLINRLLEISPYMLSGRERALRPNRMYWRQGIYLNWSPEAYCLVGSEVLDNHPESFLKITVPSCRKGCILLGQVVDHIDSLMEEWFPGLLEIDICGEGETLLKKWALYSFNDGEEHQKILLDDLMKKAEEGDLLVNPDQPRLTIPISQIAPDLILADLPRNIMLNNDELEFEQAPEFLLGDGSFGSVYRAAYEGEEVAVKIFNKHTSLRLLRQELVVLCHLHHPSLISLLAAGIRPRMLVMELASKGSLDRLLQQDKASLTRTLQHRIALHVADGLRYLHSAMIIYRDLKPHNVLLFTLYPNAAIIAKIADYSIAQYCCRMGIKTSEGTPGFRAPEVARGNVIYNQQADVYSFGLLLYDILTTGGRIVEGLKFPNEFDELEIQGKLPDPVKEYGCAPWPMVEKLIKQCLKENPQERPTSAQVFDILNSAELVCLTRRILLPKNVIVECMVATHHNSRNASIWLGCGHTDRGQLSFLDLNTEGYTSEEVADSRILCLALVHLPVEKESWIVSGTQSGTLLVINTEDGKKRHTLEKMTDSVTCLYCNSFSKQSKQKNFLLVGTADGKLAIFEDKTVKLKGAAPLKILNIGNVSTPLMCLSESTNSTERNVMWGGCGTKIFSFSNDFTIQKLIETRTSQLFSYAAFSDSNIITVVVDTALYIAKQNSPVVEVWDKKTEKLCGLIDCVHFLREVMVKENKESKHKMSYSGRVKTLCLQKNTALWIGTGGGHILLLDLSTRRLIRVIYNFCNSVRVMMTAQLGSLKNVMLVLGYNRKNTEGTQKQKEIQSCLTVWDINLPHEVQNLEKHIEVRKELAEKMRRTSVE

Compound `CNC(=O)c1ccc(Nc2ncc(C(F)(F)F)c(NCc3nccnc3N(C)S(C)(=O)=O)n2)cc1` [DEFACTINIB] has a residual activity [1, 46] of 100%, a residual activity [2, 46] of 81% and a residual activity [3, 46] of 88%. For the same compound, the residual activity [4, 46] was 100%, the residual activity [5, 46] was 73% and the residual activity [6, 46] was 98%. For the same compound, the residual activity [7, 46] was 76%, the inhibition [8] was -3.38% and the residual activity [9, 46] was 77%. The residual activity [10, 46] was 100%, the residual activity [11, 46] was 89% and the residual activity [12, 46] was 100%. It also gave a residual activity [13, 46] of 77%, a residual activity [14, 46] of 94% and a residual activity [15, 46] of 100%. The residual activity [16, 46] was 86%, the residual activity [17, 46] was 64% and the inhibition [18] was 16.9%. It also gave a residual activity [19, 46] of 100%, a residual activity [20, 46] of 100% and an inhibition [21] of 4.63%. It also gave a residual activity [22, 46] of 100%, a residual activity [23, 46] of 26% and a residual activity [24, 46] of 71%. It also gave a residual activity [25, 46] of 44%, a residual activity [26, 46] of 67% and a residual activity [27, 46] of 48%. The residual activity [28, 46] was 97%, the residual activity [29, 46] was 83% and the residual activity [30, 46] was 100%. It also gave a residual activity [31, 46] of 87%, a residual activity [32, 46] of 82% and a residual activity [33, 46] of 95%. For the same compound, the residual activity [34, 46] was 100%, the residual activity [35, 46] was 65% and the inhibition [36] was -0.22%. It also gave a residual activity [37, 46] of 100%, a residual activity [38, 46] of 95% and a residual activity [39, 46] of 100%. It also gave a residual activity [40, 46] of 83%, a residual activity [41, 46] of 100% and a residual activity [42, 46] of 100%. The residual activity [43, 46] was 95%, the residual activity [44, 46] was 58% and the residual activity [45, 46] was 88%.
With `CN(c1ccnc(CNc2nc(Nc3ccc4c(c3)CC(=O)N4)ncc2C(F)(F)F)n1)S(C)(=O)=O` [PF-00911705] the residual activity [1, 47] was 85%, the residual activity [2, 47] was 79% and the residual activity [3, 47] was 84%. For the same compound, the residual activity [4, 47] was 100%, the residual activity [5, 47] was 79% and the residual activity [6, 47] was 91%. It also gave a residual activity [7, 47] of 37%, an inhibition [8] of 21.4% and a residual activity [9, 47] of 82%. It also gave a residual activity [10, 47] of 93%, a residual activity [11, 47] of 95% and a residual activity [12, 47] of 84%. For the same compound, the residual activity [13, 47] was 80%, the residual activity [14, 47] was 22% and the residual activity [15, 47] was 65%. It also gave a residual activity [16, 47] of 65%, a residual activity [17, 47] of 30% and an inhibition [18] of 8.11%. The residual activity [19, 47] was 9.5%, the residual activity [20, 47] was 0% and the inhibition [21] was 1.64%. It also gave a residual activity [22, 47] of 43%, a residual activity [23, 47] of 5.5% and a residual activity [24, 47] of 72%. It also gave a residual activity [25, 47] of 41%, a residual activity [26, 47] of 58% and a residual activity [27, 47] of 58%. The residual activity [28, 47] was 28%, the residual activity [29, 47] was 78% and the residual activity [30, 47] was 100%. The residual activity [31, 47] was 59%, the residual activity [32, 47] was 77% and the residual activity [33, 47] was 92%. For the same compound, the residual activity [34, 47] was 66%, the residual activity [35, 47] was 7.3% and the inhibition [36] was 0.5%. For the same compound, the residual activity [37, 47] was 63%, the residual activity [38, 47] was 46% and the residual activity [39, 47] was 68%. It also gave a residual activity [40, 47] of 100%, a residual activity [41, 47] of 100% and a residual activity [42, 47] of 76%. For the same compound, the residual activity [43, 47] was 91%, the residual activity [44, 47] was 52% and the residual activity [45, 47] was 84%.
